The source of these data is patent US6325989A, “Form of dipeptidylpeptidase IV (CD26) found in human serum” (Dana-Farber Cancer Institute, Inc., priority 1995, dated 2001).

Each structure is given as a SMILES string. Residues, ends and D or L forms follow the SMILES beside them. *: point of attachment. pNA = O=[N+]([O-])c1ccc(N*)cc1

The term IC50 denotes the concentration that inhibits the measured activity by half. Low readings indicate inhibition by little substance, high ones a need for much substance. A word on the Km: it is the substrate concentration at which the rate is half of its maximum.

Test [1] deals with soluble serum DPPIV/CD26, 175 kDa form, purified from normal human serum. As to the kind of experiment: DPPIV activity assay (hydrolysis of Gly-Pro-pNA; Michaelis-Menten kinetics and inhibition). The class given is biochemical. As for the experimental part:
(§1) The DPPIV enzyme activities of the rsCD26 and serum DPPIV were analyzed by Michaelis-Menten kinetics by assessing kinetics of hydrolysis of substrate at different concentrations. […] To further exclude the possibility that we had purified irrelevant aminopeptidases which, working in concert or by sequential hydrolysis, could release the pNA chromophore from substrate, we tested a number of substrates which could be hydrolyzed by non-DPPIV aminopeptidases. One candidate for sequential hydrolysis is aminopeptidase M (3.4.11.2), but no hydrolysis of Ala-pNA, Arg-pNA or Leu-pNA was observed and activity by aminopolypeptidase (3.4.11.14) may be similarly excluded. The substrate succinyl-Gly-Pro-pNA was also not hydrolyzed. The only substrate apart from the dipeptide chromatogen Gly-Pro-pNA which could be hydrolyzed was Val-Ala-pNA, which was cleaved by both the serum DPPIV and rsCD26 (relative to rate of hydrolysis of Gly-Pro-pNA, hydrolysis of Val-Ala-pNA was 0.098 and 0.079, for rsCD26 and serum DPPIV, respectively). Although DPPIV primarily hydrolyses dipeptides with a proline in the penultimate position, it is well documented that alanine in the penultimate position may also render a dipeptide sequence susceptible to cleavage by DPPIV (8). […]
The primary substrate used for determining DPPIV activity in all assays was Gly-Pro-p-nitroanilide (Gly-Pro-pNA; Sigma), which is hydrolyzed by DPPIV to release pNA absorbing strongly at 405 nm. […] Inhibition of the hydrolysis of Gly-Pro-pNA was determined in the presence of the specific DPPIV inhibitor Diprotin A (Bachem, King of Prussia, Pa.). […] The pH optimum was determined substituting phosphate buffer (100 mM, pH4.5-pH9) in place of standard incubation buffer.
Serum DPPIV was prepared by isolating from 100 ml of pooled normal human male AB serum the fraction of protein precipitated by 50-70% saturated ammonium sulfate. […] The DPPIV activity was eluted by a 0-0.5M NaCl gradient in equilibration buffer and all DPPIV activity was found in the 10 mM-50 mM NaCl eluate (determined by conductance). […]

Test [2] addresses T1, recombinant soluble CD26 (rsCD26), full extracellular domain of human T cell membrane CD26/DPPIV, 105 kDa form, from transfected CHO cells (Homo sapiens, UniProt P27487).
T1 construct: The full extracellular domain of T cell membrane-expressed CD26 (rsCD26); made in house; host or cells: transfected CHO cells
Described as above. The class given is biochemical. As to the method:
as §1, with “respectively).” for “respectively). Although DPPIV primarily hydrolyses dipeptides with a proline in the penultimate position, it is well documented that alanine in the penultimate position may also render a dipeptide sequence susceptible to cleavage by DPPIV (8).”
The primary substrate used for determining DPPIV activity in all assays was Gly-Pro-p-nitroanilide (Gly-Pro-pNA; Sigma), which is hydrolyzed by DPPIV to release pNA absorbing strongly at 405 nm. […] Inhibition of the hydrolysis of Gly-Pro-pNA was determined in the presence of the specific DPPIV inhibitor Diprotin A (Bachem, King of Prussia, Pa.). […]

Where [3] appears, read: Lineweaver-Burke transformation.
Setting [4] is: unit defined at pH7.6 and 20° C.

T1 sequence (P27487 29-766 limits assumed): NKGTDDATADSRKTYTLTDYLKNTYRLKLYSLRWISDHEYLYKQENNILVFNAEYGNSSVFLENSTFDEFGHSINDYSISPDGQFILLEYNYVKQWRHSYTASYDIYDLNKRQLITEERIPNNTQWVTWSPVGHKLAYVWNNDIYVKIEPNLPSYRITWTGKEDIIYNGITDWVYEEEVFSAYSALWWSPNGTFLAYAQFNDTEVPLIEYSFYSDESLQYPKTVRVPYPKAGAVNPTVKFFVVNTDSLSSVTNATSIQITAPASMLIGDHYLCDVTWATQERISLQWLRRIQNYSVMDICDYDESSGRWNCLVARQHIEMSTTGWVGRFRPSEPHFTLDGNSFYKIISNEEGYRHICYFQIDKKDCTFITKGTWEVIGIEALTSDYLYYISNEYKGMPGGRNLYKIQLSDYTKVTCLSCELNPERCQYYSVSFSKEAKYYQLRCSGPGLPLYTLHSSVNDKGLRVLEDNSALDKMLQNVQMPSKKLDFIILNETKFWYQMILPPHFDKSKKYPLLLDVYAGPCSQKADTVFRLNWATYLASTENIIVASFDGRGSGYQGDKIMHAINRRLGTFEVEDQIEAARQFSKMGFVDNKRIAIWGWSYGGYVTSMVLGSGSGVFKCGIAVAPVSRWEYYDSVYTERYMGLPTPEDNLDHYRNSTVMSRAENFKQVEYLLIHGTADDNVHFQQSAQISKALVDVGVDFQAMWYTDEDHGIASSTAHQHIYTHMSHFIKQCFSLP

As to `CC[C@H](C)[C@H](N)C(=O)N1CCC[C@H]1C(=O)N[C@H](C(=O)O)[C@@H](C)CC` [Diprotin A], half-maximal inhibition in test [1] (substrate Gly-Pro-pNA) (IC50) was put at 250 µM.
For `NCC(=O)N1CCC[C@H]1C(=O)Nc1ccc([N+](=O)[O-])cc1` [Gly-Pro-pNA, Gly-Pro-p-nitroanilide] (H-Gly-Pro-pNA), the Km in test [1] (setting [3]) and in test [2] (setting [3]) was 280 µM each time. Besides, the “Vmax, using Gly-Pro-pNA as substrate” value in test [1] (setting [4]) was 0.65 U/nmol serum DPPIV; in test [2] (setting [4]) it was 1.52 U/nmol rsCD26.
